According to publication PMC6017342, “Discovery of Oxime Ethers as Hepatitis B Virus (HBV) Inhibitors by Docking, Screening and In Vitro Investigation” (Molecules : A Journal of Synthetic Chemistry and Natural …, 2018):
Values joined by “and” are separate entries in the source; they are usually repeats but may differ in a detail not shown here. Equal entries are not always repeated. Where two headings read alike, the source gives them in different places.

Experiments:
[1] = system: secretion of HBeAg in HepG2.2.15 cells; experiment: Inhibition of HBeAg secretion in HepG2.2.15 cells (ELISA); assay type: cell-based, Hepatitis B virus; details: 9 days
Text: (§1) The anti-HBV activities of the compounds were expressed as the concentration of compound that achieved 50% inhibition (IC50) to the secretion of HBsAg and HBeAg. […] The cytotoxicity of compounds was expressed as the concentration of compound required to kill 50% (TC50) of the HepG2.2.15 cells.
(§2) HepG2.2.15 (clonal cells derived from human hepatoma cell line G2) cells were provided by the Chinese Academy of Medical Sciences (P.R. China) and maintained in minimal essential medium (MEM) supplemented with 10% fetal bovine serum and 380 μg/mL of G418, 50 ug/mL of kanamycin, and 0.03% L-glutamine at 37 °C in a 5% CO2 atmosphere with 100% humidity.
(§3) HepG2.2.15 cells were seeded at a density of 1 × 10^5 cells/ml ([…]) in 96-well plates and maintained at 37 °C for 24 h prior to extract addition, followed by treatment with various concentrations of drugs. […] Cells were treated with drug-containing fresh medium every 3 d for up to 9 d in a time-dependent experiment. Medium was taken at the 9th day of the treatment and stored at −20 °C until analysis. The IC50 and selected index (SI) of each compound were calculated, respectively.
(§4) The levels of HBV surface antigen (HBsAg) and HBV e antigen (HBeAg) in the supernatant of the HepG2.2.15 cell were simultaneously detected using enzyme-linked immunosorbent assay (ELISA) kits (Rongsheng Biotechnology Co. Ltd., Shanghai, China) according to the manufacturer’s instructions.The synthesized derivatives were expressed as the concentration of compound that achieved 50% inhibition (IC50) to the secretion of HBsAg and HBeAg. The selectivity index (SI) was determined as the ratio of CC50 to IC50, which is a major pharmaceutical parameter of estimates possible for future clinical application.

[2] = system: secretion of HBsAg in HepG2.2.15 cells; experiment: microbe, parasite or virus in culture; assay type: cell-based, Hepatitis B virus; details: for IC50 / HBsAg IC50: - = inhibition ratio less than 50% in the test concentration range
Text: as §1, §2, §3, §4

HepG2.2.15 cells = experiment: Cytotoxicity on HepG2.2.15 cells (MTT assay, 9 days); assay type: cell-based, human; details: HepG 2.2.15 cell
Method: as §2
HepG2.2.15 cells were seeded at a density of 1 × 10^5 cells/ml ([…]) in 96-well plates and maintained at 37 °C for 24 h prior to extract addition, followed by treatment with various concentrations of drugs. Lamivudine (3TC) was served as the positive control. Cells were treated with drug-containing fresh medium every 3 d for up to 9 d in a time-dependent experiment. Medium was taken at the 9th day of the treatment and stored at −20 °C until analysis. The IC50 and selected index (SI) of each compound were calculated, respectively.
Logarithmically growing cells were seeded in 96-well culture plates at a density of 1 × 10^5 cells/mL ([…]). They were cultured for 24 h and then treated with various concentrations of drugs. Optical density (OD) values were read at 450 nm after 9 days and the percentage of cell death was calculated; the cells were treated with drug-containing fresh medium every 3 d for up to 9 d. After drug treatment, the cytotoxicity was measured using the MTT assay.

[3] = Hepatitis B virus, HepG2.2.15, 216 h, ELISA, - = inhibition ratio less than 50% in the test concentration range
[4] = Hepatitis B virus, HepG2.2.15, 216 h, read-out: HBsAg IC50, HepG2.2.15 cells, 9 days, ELISA
[5] = ELISA, - = inhibition ratio less than 50% in the test concentration range
[6] = HepG2.2.15 cells, 9 days, ELISA
[7] = HepG2.2.15 cells, 9 days, ELISA, read-out: HBsAg IC50

## CO/N=C(\CCC(=O)OCc1ccco1)c1ccc(OC)cc1 [Compound 4b-1, Furan-2-ylmethyl (E)-4-(4-methoxyphenyl)-4-[(methoxy)imino]butanoate]
[1]; [3]
  IC50: > 359 µM
[2]; HepG2.2.15 cells, 9 days
  HBsAg SI (selectivity index = TC50/IC50): 2.72
[2]; [4]
  IC50: 128 µM
HepG2.2.15 cells
  TC50 (50% cytotoxicity concentration): 347.55 µM

## Ethyl (E)-4-(4-methylbenzoyl)-4-[(benzyloxy)imino]butanoate [Compound 3a-2]
[1]; [5]
  IC50: > 359 µM
[2]; [6]
  HBsAg IC50: non
[2]; [7]
  IC50: > 293 µM
HepG2.2.15 cells
  TC50 (50% cytotoxicity concentration): >1500 µM

## COc1ccc(/C(CCC(=O)OCc2ccco2)=N/OCc2ccccc2)cc1 [Compound 4b-2, Furan-2-ylmethyl (E)-4-(4-methoxyphenyl)-4-[(benzyloxy)imino]butanoate]
[1]; [3]
  IC50: > 359 µM
[2]; HepG2.2.15 cells, 9 days
  HBsAg SI (selectivity index = TC50/IC50): 4.94
[2]; [4]
  IC50: 234 µM
HepG2.2.15 cells
  TC50 (50% cytotoxicity concentration): 1153.49 µM

## Ethyl (E)-4-(4-methoxyphenyl)-4-[(benzyloxy)imino]butanoate [Compound 3b-2]
[1]; [5]
  IC50: > 359 µM
[2]; HepG2.2.15 cells, 9 days
  HBsAg SI (selectivity index = TC50/IC50): 4.95
[2]; [7]
  IC50: 86.9 µM
HepG2.2.15 cells
  TC50 (50% cytotoxicity concentration): 429.88 µM

## (E)-4-(4-Methoxyphenyl)-4-[(benzyloxy)imino]-N-phenylbutanamide [Compound 5b-2]
[1]
  HBeAg SI (selectivity index = TC50/IC50): >7.83
[1]; [5]
  IC50: 192 µM
[2]; HepG2.2.15 cells, 9 days
  HBsAg SI (selectivity index = TC50/IC50): >14.82
[2]; [7]
  IC50: 101 µM
HepG2.2.15 cells
  TC50 (50% cytotoxicity concentration): >1500 µM

## O=C(CC/C(=N\OCc1ccccc1)c1ccc(Cl)cc1)Nc1ccccc1 [Compound 5c-2, (E)-4-(4-Chlorophenyl)-4-[(benzyloxy)imino]-N-phenylbutanamide]
other
  melting point: 116 to 117.9 °C

## CO/N=C(\CCC(=O)Nc1ccccc1)c1ccc(OC)cc1 [Compound 5b-1, (E)-4-(4-Methoxyphenyl)-4-[(methoxy)imino]-N-phenylbutanamide]
[1]; [3]
  IC50: > 359 µM
[2]; HepG2.2.15 cells, 9 days
  HBsAg SI (selectivity index = TC50/IC50): 2.28
[2]; [4]
  IC50: 208 µM
HepG2.2.15 cells
  TC50 (50% cytotoxicity concentration): 473.25 µM

## (E)-4-(4-Methylbenzoyl)-4-[(methoxy)imino]-N-phenylbutanamide [Compound 5a-1]
[1]
  HBeAg SI (selectivity index = TC50/IC50): >5.48
[1]; [5]
  IC50: 274 µM
[2]; HepG2.2.15 cells, 9 days
  HBsAg SI (selectivity index = TC50/IC50): >20.02
[2]; [7]
  IC50: 74.9 µM
HepG2.2.15 cells
  TC50 (50% cytotoxicity concentration): >1500 µM

## Furan-2-ylmethyl (E)-4-(4-methylbenzoyl)-4-[(benzyloxy)imino]butanoate [Compound 4a-2]
[1]; [5]
  IC50: > 359 µM
[2]; [6]
  HBsAg IC50: non
[2]; [7]
  IC50: > 293 µM
HepG2.2.15 cells
  TC50 (50% cytotoxicity concentration): >1500 µM

## CCOC(=O)CC/C(=N\OC)C(=O)c1ccc(C)cc1 [Compound 3a-1, Ethyl (E)-4-(4-methylbenzoyl)-4-[(methoxy)imino]butanoate]
[1]; [3]
  IC50: > 359 µM
[2]; HepG2.2.15 cells, 9 days
  HBsAg SI (selectivity index = TC50/IC50): >5.12
[2]; [4]
  IC50: 293 µM
HepG2.2.15 cells
  TC50 (50% cytotoxicity concentration): >1500 µM

## Furan-2-ylmethyl (E)-4-(4-chlorophenyl)-4-[(benzyloxy)imino]butanoate [Compound 4c-2]
[1]; [5]
  IC50: > 359 µM
[2]; [7]
  IC50: > 293 µM
HepG2.2.15 cells
  TC50 (50% cytotoxicity concentration): >1500 µM

## CO/N=C(\CCC(=O)Nc1ccccc1)c1ccc(Cl)cc1 [Compound 5c-1, (E)-4-(4-Chlorophenyl)-4-[(methoxy)imino]-N-phenylbutanamide]
[1]
  HBeAg SI (selectivity index = TC50/IC50): 4.63
[1]; [5]
  HBeAg IC50: non
[1]; [3]
  IC50: 246 µM
[2]; HepG2.2.15 cells, 9 days
  HBsAg SI (selectivity index = TC50/IC50): 28.51
HepG2.2.15 cells
  TC50 (50% cytotoxicity concentration): 1138.45 µM and >1500 µM

## CCOC(=O)CC/C(=N\OC)c1ccc(Cl)cc1 [Compound 3c-1, Ethyl (E)-4-(4-chlorophenyl)-4-[(methoxy)imino]butanoate]
[1]; [3]
  IC50: > 359 µM
[2]; HepG2.2.15 cells, 9 days
  HBsAg SI (selectivity index = TC50/IC50): 2.00
[2]; [4]
  IC50: 225 µM
HepG2.2.15 cells
  TC50 (50% cytotoxicity concentration): 450.67 µM

## Nc1ccn([C@@H]2CS[C@H](CO)O2)c(=O)n1 [Compound 3TC, Lamivudine, reference compound]
[2]; [4]
  IC50: 291 µM
HepG2.2.15 cells
  TC50 (50% cytotoxicity concentration): 517.40 µM

## CO/N=C(\CCC(=O)OCc1ccco1)c1ccc(Cl)cc1 [Compound 4c-1, Furan-2-ylmethyl (E)-4-(4-chlorophenyl)-4-[(methoxy)imino]butanoate]
[1]; [3]
  IC50: > 359 µM
[2]; [6]
  HBsAg IC50: non
[2]; [4]
  IC50: > 293 µM
HepG2.2.15 cells
  TC50 (50% cytotoxicity concentration): >1500 µM

## CCOC(=O)CC/C(=N\OC)c1ccc(OC)cc1 [Compound 3b-1, Ethyl (E)-4-(4-methoxyphenyl)-4-[(methoxy)imino]butanoate]
[1]; [3]
  IC50: > 359 µM
[2]; [6]
  HBsAg IC50: inhibitory activity could be neglected
[2]; [4]
  IC50: > 293 µM
HepG2.2.15 cells
  TC50 (50% cytotoxicity concentration): 1383.74 µM

## Ethyl (E)-4-(4-chlorophenyl)-4-[(benzyloxy)imino]butanoate [Compound 3c-2]
[1]
  HBeAg SI (selectivity index = TC50/IC50): 1.34
[1]; [5]
  IC50: 93.9 µM
[2]; HepG2.2.15 cells, 9 days
  HBsAg SI (selectivity index = TC50/IC50): 1.34
[2]; [7]
  IC50: 94.7 µM
HepG2.2.15 cells
  TC50 (50% cytotoxicity concentration): 127.10 µM
